Literature values as cited in patent publication US20220142904A1, “A METHOD OF COLORING KERATINOUS MATERIAL COMPRISING THE USE OF AN ORGANOSILICON COMPOUND, A COLORING COMPOUND, A SEALING REAGENT, AND A MIXTURE OF SILICONES” (Henkel AG & Co. KGaA, priority 2019, published 2022).

Details: for solubility in water: 25° C.

Row | Compound | solubility in water | solubility in water (in words) (water at 25° C.)
1 | O=S(=O)([O-])c1ccc(N=Nc2c(O)ccc3ccccc23)cc1.[Na+] [Acid Orange 7, sodium salt of 4-[(2-hydroxy-1-naphthyl)azo]benzene sulphonate] | more than 7 g/L | 
2 | Nc1cc(S(=O)(=O)[O-])cc2cc(S(=O)(=O)[O-])c(N=Nc3ccccc3)c(O)c12.[Na+].[Na+] [Acid Red 33, disodium salt of 5-amino-4-hydroxy-3-(phenylazo)-naphthalene-2,7-disulphonate] | 2.5 mg/mL | 
3 | O=C([O-])c1c(Cl)c(Cl)c(Cl)c(Cl)c1-c1c2c(Br)cc(=O)c(Br)c-2oc2c(Br)c(O)cc(Br)c12.O=C([O-])c1c(Cl)c(Cl)c(Cl)c(Cl)c1-c1c2c(Br)cc(=O)c(Br)c-2oc2c(Br)c(O)cc(Br)c12.[Na+].[Na+] [Acid Red 92, disodium salt of 3,4,5,6-tetrachloro-2-(1,4,5,8-tetrabromo-6-hydroxy-3-oxoxanthen-9-yl)benzoic acid] | greater than 10 g/L | 
4 | O=C([O-])C1=NN(c2ccc(S(=O)(=O)[O-])cc2)C(=O)C1N=Nc1ccc(S(=O)(=O)[O-])cc1.[Na+].[Na+].[Na+] (centres unmarked) [Acid Yellow 23, trisodium salt of 4,5-dihydro-5-oxo-1-(4-sulfophenyl)-4-((4-sulfophenyl)azo)-1H-pyrazole-3-carboxylic acid] |  | highly soluble
5 | sodium salts of mono- and disulfonic acids of 2-(2-quinolyl)-1H-indene-1,3(2H)-dione [Acid Yellow 3] | 20 mg/mL | 
